{"source": "paper PMC12189931", "about": "“In Vitro Effects of Some Antibiotics on Purified β-Glucosidases from Rat Liver and Kidney Tissues” (Antibiotics, 2025)", "key": {"rat liver BGL": {"biological_target": "T1, rat liver BGL (Rattus norvegicus, UniProt A0A0G2JVP8)", "T1 construct": "For this purpose, BGLs were purified from rat liver and kidney tissues; from tissue; host or cells: rat liver", "T1 sequence (A0A0G2JVP8 1-469)": "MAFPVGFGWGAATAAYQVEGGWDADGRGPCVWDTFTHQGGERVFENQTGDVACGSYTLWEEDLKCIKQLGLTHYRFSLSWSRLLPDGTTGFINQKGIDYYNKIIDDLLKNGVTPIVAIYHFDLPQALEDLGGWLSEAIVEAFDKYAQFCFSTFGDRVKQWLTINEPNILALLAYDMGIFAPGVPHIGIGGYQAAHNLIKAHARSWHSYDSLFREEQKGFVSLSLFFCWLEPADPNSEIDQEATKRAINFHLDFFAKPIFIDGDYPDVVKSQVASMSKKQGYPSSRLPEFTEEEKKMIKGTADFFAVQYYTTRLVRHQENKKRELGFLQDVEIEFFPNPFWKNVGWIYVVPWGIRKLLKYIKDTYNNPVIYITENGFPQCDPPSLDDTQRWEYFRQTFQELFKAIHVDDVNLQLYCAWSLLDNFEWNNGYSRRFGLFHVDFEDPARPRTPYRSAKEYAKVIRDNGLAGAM", "assay": "In vitro inhibition of β-glucosidase purified from rat liver (p-NPG substrate)", "assay_type": "biochemical", "conditions": "for effect on rat liver BGL activity: tested concentration ranges 5–250 mM depending on antibiotic", "method": "(§1) Rat liver and kidney BGL activities were determined spectrophotometrically using a ThermoFisher Scientific Multiskan™ FC microplate (Thermo Fisher Scientific, Waltham, MA, USA). p-NPG dissolved in 50 mM of pH 5.5 Na–Ac buffer was used as the substrate. In this method, enzyme activity was determined by photometrically measuring the determination of p-nitrophenol (p-NP) released in the presence of BGLs spectrophotometrically at 405 nm. Calculations were made with the standard curve of p-NP (Cat. No. 241326, Sigma) prepared at 405 nm. One enzyme unit (EU) was defined as the amount of μmol p-nitrophenol released per minute in the reaction medium under the specified experimental conditions.\n(§2) The half-maximal inhibitory concentration (IC50) of antibiotics was determined using a constant concentration of p-NPG of 1.75 mM. At least ten different concentration ranges of each antibiotic were tested to evaluate the in vitro effects of ampicillin (5–250 mM), amoxicillin–clavulanate (5–70 mM), cefuroxime (5–150 mM), cefazolin sodium (10–165 mM), ceftriaxone (10–160 mM), and gentamicin (5–50 mM). Enzyme activity was measured in the presence of different antibiotic concentrations, and BGL activity in the medium without antibiotics, which was accepted as the control group, was determined as 100% reference value. Enzyme activity results were expressed as % activity and the inhibitory concentration (IC50) that reduced enzyme activity by 50% was calculated using GraphPad Prism software. All experiments were performed in three replicates for each antibiotic concentration.\n(§3) Lineweaver–Burk double-reciprocal plots were used to determine the inhibitory effect of antibiotics and the inhibition mechanisms. The curve obtained when there was no inhibitor in the reaction medium was accepted as the control (I0); the intersection points of the control curve with the lines drawn in the presence of the inhibitor at two different concentrations were analyzed. In line with these intersection points, the relevant inhibition types were determined, and the inhibitory constants (Ki) of the inhibitors were calculated."}, "rat kidney BGL": {"biological_target": "T2, rat kidney BGL (Rattus norvegicus, UniProt A0A0G2JVP8)", "T2 construct": "For this purpose, BGLs were purified from rat liver and kidney tissues; from tissue; host or cells: rat kidney", "T2 sequence (A0A0G2JVP8 1-469)": "T1 sequence (A0A0G2JVP8 1-469)", "assay": "In vitro inhibition of β-glucosidase purified from rat kidney (p-NPG substrate)", "assay_type": "biochemical", "conditions": "for Ki / inhibition type / IC50: Kidney BGL; for Ki: Lineweaver–Burk plots; for inhibition type: Lineweaver–Burk, NI: No observed inhibition; for IC50: p-NPG 1.75 mM, GraphPad Prism; for effect on rat kidney BGL activity: tested concentration ranges 5–250 mM depending on antibiotic", "method": "as §1, §2, §3"}, "[1]": {"system": "glucose-6-phosphate dehydrogenase (G6PD) purified from rat lung tissue", "parameters": "method as in PMID 26758606", "conditions": "cited from earlier work"}, "[2]": {"system": "6-phosphogluconate dehydrogenase (6PGD) purified from rat lung tissue", "parameters": "method as in PMID 26758606", "conditions": "cited from earlier work"}, "[3]": {"system": "glutathione reductase (GR) purified from rat lung tissue", "parameters": "method as in PMID 26758606", "conditions": "cited from earlier work"}, "[4]": {"biological_target": "glutathione reductase (GR) purified from mouse kidney tissue", "parameters": "method as in PMID 32196862", "conditions": "cited from earlier work"}, "[5]": {"system": "glutathione reductase (GR) purified from mouse liver", "parameters": "method as in PMID 32196862", "conditions": "cited from earlier work"}, "[6]": {"system": "glucose-6-phosphate dehydrogenase (G6PD) purified from human erythrocytes", "parameters": "method as in PMID 10712835", "conditions": "cited from earlier work; for IC50: G6PD purified from human erythrocytes"}, "[7]": {"system": "G6PD purified from sheep erythrocytes", "parameters": "method as in PMID 12530481", "conditions": "cited from earlier work"}, "[8]": {"system": "glutathione reductase (GR) purified from human erythrocytes", "parameters": "method as in PMID 15895687", "conditions": "cited from earlier work"}}, "note": "“And” between values parts separate entries of the source, which are not always exact repeats. Equal values may be shown once. “Also recorded” adds a separate entry of the source."}
{"molecule": "CO/N=C(\\C(=O)N[C@@H]1C(=O)N2C(C(=O)O)=C(COC(N)=O)CS[C@H]12)c1ccco1", "note": "[Cefuroxime]", "values": [{"measurement": "effect on rat liver BGL activity", "setting": "rat liver BGL", "value": "did not show a significant inhibitory effect"}, {"measurement": "Ki", "setting": "rat kidney BGL", "value": "18.7 ± 12.7", "unit": "mM"}, {"measurement": "inhibition type", "setting": "rat kidney BGL", "value": "Uncompetitive"}, {"measurement": "IC50", "setting": "rat kidney BGL", "value": 76.9, "unit": "mM"}, {"measurement": "inhibition type", "setting": "[1]", "value": "noncompetitively"}, {"measurement": "inhibition type", "setting": "[2]", "value": "noncompetitively"}, {"measurement": "inhibition type", "setting": "[3]", "value": "noncompetitively"}]}
{"molecule": "CO/N=C(\\C(=O)N[C@@H]1C(=O)N2C(C(=O)O)=C(CSc3nc(=O)c(=O)[nH]n3C)CS[C@H]12)c1csc(N)n1", "note": "[Ceftriaxone]", "values": [{"measurement": "effect on rat liver BGL activity", "setting": "rat liver BGL", "value": "did not show a significant inhibitory effect"}, {"measurement": "effect on rat kidney BGL activity", "setting": "rat kidney BGL", "value": "did not reduce kidney BGL activity; also recorded: did not significantly inhibit; also recorded: did not exhibit inhibitory effects"}]}
{"molecule": "CC1(C)S[C@@H]2[C@H](NC(=O)[C@H](N)c3ccc(O)cc3)C(=O)N2[C@H]1C(=O)O", "note": "[amoxicillin]", "values": [{"measurement": "IC50", "setting": "[4]", "value": 86, "unit": "mM"}, {"measurement": "inhibition / inhibition type", "setting": "[4]", "value": "noncompetitive"}, {"measurement": "inhibition / inhibition type", "setting": "[5]", "value": "competitive"}]}
{"molecule": "Cc1nnc(SCC2=C(C(=O)O)N3C(=O)[C@@H](NC(=O)Cn4cnnn4)[C@H]3SC2)s1", "note": "[Cefazolin sodium]", "values": [{"measurement": "effect on rat liver BGL activity", "setting": "rat liver BGL", "value": "did not show a significant inhibitory effect"}, {"measurement": "inhibition type", "setting": "rat kidney BGL", "value": "Noncompetitive"}, {"measurement": "inhibition type", "setting": "rat kidney BGL; listed as cefazolin sodium", "value": "noncompetitively"}, {"measurement": "IC50", "setting": "rat kidney BGL", "value": 98.8, "unit": "mM"}, {"measurement": "inhibition / inhibition type", "setting": "[4]", "value": "did not inhibit"}, {"measurement": "inhibition / inhibition type", "setting": "[5]", "value": "did not inhibit"}, {"measurement": "inhibition type", "setting": "[6]; human erythrocyte G6PD", "value": "noncompetitive"}]}
{"molecule": "CO/N=C(\\C(=O)N[C@@H]1C(=O)N2C(C(=O)O)=C(COC(N)=O)CS[C@H]12)c1ccco1", "note": "[sodium cefuroxime]", "values": [{"measurement": "IC50", "setting": "[6]", "value": 6.7, "unit": "mM"}]}
{"molecule": "CC1(C)S[C@@H]2[C@H](NC(=O)[C@H](N)c3ccccc3)C(=O)N2[C@H]1C(=O)O", "note": "[Ampicillin]", "values": [{"measurement": "loss in liver BGL activity", "setting": "rat liver BGL; 40 mM ampicillin in the medium", "value": 10, "unit": "%"}, {"measurement": "Ki", "setting": "rat liver BGL; Liver BGL, Lineweaver–Burk plots", "value": "14.3 ± 3.35", "unit": "mM"}, {"measurement": "inhibition type", "setting": "rat liver BGL; Liver BGL, Lineweaver–Burk, NI: No observed inhibition", "value": "competitively; also recorded: Competitive"}, {"measurement": "IC50", "setting": "rat liver BGL; Liver BGL, p-NPG 1.75 mM, GraphPad Prism", "value": "70 mM and 69.6 mM"}, {"measurement": "Ki", "setting": "rat kidney BGL", "value": "28.4 ± 6.35", "unit": "mM"}, {"measurement": "inhibition type", "setting": "rat kidney BGL", "value": "noncompetitively; also recorded: Noncompetitive"}, {"measurement": "IC50", "setting": "rat kidney BGL", "value": "25 mM and 25.3 mM"}]}
{"molecule": "gentamicin sulfate", "values": [{"measurement": "IC50", "setting": "[6]", "value": 12, "unit": "mM"}, {"measurement": "inhibition type", "setting": "[7]", "value": "noncompetitively"}]}
{"molecule": "CNC(C)C1CCC(N)C(OC2C(N)CC(N)C(OC3OCC(C)(O)C(NC)C3O)C2O)O1", "note": "(centres unmarked) [Gentamicin]", "values": [{"measurement": "effect on rat liver BGL activity", "setting": "rat liver BGL; listed as gentamicin", "value": "did not show a significant inhibitory effect; also recorded: increased enzyme activity; also recorded: no inhibitory effect"}, {"measurement": "effect on rat kidney BGL activity", "setting": "rat kidney BGL", "value": "did not reduce kidney BGL activity"}, {"measurement": "effect on rat kidney BGL activity", "setting": "rat kidney BGL; listed as gentamicin", "value": "did not significantly inhibit; also recorded: did not exhibit inhibitory effects; also recorded: no effect on enzyme activity"}, {"measurement": "inhibition / inhibition type", "setting": "[4]", "value": "did not inhibit"}, {"measurement": "inhibition / inhibition type", "setting": "[5]", "value": "noncompetitive"}, {"measurement": "effect on enzyme activity", "setting": "[8]", "value": "increase the activity"}, {"measurement": "inhibition type", "setting": "[1]", "value": "competitively"}, {"measurement": "inhibition type", "setting": "[2]", "value": "competitively"}, {"measurement": "inhibition type", "setting": "[3]", "value": "competitively"}]}
